Assay results as given in publication PMC9851200, “Multiparameter phenotypic screening for endogenous TFEB and TFE3 translocation identifies novel chemical series modulating lysosome function” (Autophagy, 2022).

Tests used:
Format in all cases: binding
[1] = molecular target: kinases (KINOMEscan panel) (Homo sapiens, UniProt Q13882)
[2] = molecular target: kinases (KINOMEscan panel) (Homo sapiens, UniProt Q13164)
[3] = molecular target: kinases (KINOMEscan panel) (Homo sapiens, UniProt Q02763)
[4] = molecular target: kinases (KINOMEscan panel) (Homo sapiens, UniProt Q9H2G2)
[5] = molecular target: kinases (KINOMEscan panel) (Homo sapiens, UniProt Q9NYL2)
[6] = molecular target: kinases (KINOMEscan panel) (Homo sapiens, UniProt Q16620)
[7] = molecular target: kinases (KINOMEscan panel) (Homo sapiens, UniProt Q8NEB9)
[8] = molecular target: kinases (KINOMEscan panel) (Homo sapiens, UniProt Q6P2M8)
[9] = molecular target: kinases (KINOMEscan panel) (Homo sapiens, UniProt Q99683)
[10] = molecular target: kinases (KINOMEscan panel) (Homo sapiens, UniProt Q9NY57)
[11] = molecular target: kinases (KINOMEscan panel) (Homo sapiens, UniProt O94768)
[12] = molecular target: kinases (KINOMEscan panel) (Homo sapiens, UniProt Q9UEE5)
[13] = molecular target: kinases (KINOMEscan panel) (Homo sapiens, UniProt P51812)
Chain of kinases (KINOMEscan panel) (Homo sapiens, UniProt P51812) (P51812 whole entry): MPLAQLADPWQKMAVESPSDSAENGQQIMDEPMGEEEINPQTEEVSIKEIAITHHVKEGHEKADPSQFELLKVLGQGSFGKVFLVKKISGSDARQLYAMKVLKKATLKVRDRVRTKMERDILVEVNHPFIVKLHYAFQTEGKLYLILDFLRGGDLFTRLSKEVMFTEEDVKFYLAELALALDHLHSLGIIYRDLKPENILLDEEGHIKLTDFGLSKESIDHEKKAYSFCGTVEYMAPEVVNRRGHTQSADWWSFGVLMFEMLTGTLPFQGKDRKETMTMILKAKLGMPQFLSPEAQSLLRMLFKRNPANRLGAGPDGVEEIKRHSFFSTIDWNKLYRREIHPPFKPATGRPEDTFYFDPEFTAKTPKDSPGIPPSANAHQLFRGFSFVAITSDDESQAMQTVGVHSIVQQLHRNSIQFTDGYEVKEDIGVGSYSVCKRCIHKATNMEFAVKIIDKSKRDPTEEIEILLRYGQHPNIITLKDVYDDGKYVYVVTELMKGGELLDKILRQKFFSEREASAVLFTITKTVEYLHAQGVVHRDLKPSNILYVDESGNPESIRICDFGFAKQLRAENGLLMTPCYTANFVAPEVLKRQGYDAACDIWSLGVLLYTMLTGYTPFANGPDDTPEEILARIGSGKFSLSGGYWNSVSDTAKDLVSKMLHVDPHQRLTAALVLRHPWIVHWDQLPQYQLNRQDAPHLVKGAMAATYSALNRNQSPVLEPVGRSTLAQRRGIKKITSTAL

[14] = molecular target: kinases (KINOMEscan panel) (Homo sapiens, UniProt Q02750)
[15] = molecular target: kinases (KINOMEscan panel) (Homo sapiens, UniProt Q9UK32)
Chain of kinases (KINOMEscan panel) (Homo sapiens, UniProt Q9UK32) (Q9UK32 whole entry): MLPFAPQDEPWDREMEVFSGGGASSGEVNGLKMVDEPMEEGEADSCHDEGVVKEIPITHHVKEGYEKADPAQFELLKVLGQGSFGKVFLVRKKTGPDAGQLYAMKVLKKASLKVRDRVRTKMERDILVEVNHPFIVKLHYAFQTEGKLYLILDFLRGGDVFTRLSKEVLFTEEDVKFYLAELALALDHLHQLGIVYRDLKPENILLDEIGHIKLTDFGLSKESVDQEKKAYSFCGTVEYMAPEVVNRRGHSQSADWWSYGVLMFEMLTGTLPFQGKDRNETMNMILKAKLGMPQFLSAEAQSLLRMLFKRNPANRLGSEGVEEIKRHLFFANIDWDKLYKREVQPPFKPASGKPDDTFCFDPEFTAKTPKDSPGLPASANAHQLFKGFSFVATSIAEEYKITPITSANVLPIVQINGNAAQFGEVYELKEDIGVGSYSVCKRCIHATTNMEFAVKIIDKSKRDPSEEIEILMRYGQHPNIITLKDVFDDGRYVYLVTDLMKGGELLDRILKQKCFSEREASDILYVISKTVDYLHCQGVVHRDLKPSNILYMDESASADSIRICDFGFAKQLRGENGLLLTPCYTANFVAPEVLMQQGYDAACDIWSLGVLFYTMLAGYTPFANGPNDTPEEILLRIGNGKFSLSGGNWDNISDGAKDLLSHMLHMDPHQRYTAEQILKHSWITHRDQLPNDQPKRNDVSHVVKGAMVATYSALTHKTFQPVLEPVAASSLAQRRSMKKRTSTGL

[16] = molecular target: kinases (KINOMEscan panel) (Homo sapiens, UniProt P08581)
[17] = molecular target: kinases (KINOMEscan panel) (Homo sapiens, UniProt O14733)
[18] = molecular target: kinases (KINOMEscan panel) (Homo sapiens, UniProt P36507)
[19] = molecular target: kinases (KINOMEscan panel) (Homo sapiens, UniProt O95382)
[20] = molecular target: kinases (KINOMEscan panel) (Homo sapiens, UniProt Q9Y2H1)
[21] = molecular target: kinases (KINOMEscan panel) (Homo sapiens, UniProt P45985)
Chain of kinases (KINOMEscan panel) (Homo sapiens, UniProt P45985) (P45985 whole entry): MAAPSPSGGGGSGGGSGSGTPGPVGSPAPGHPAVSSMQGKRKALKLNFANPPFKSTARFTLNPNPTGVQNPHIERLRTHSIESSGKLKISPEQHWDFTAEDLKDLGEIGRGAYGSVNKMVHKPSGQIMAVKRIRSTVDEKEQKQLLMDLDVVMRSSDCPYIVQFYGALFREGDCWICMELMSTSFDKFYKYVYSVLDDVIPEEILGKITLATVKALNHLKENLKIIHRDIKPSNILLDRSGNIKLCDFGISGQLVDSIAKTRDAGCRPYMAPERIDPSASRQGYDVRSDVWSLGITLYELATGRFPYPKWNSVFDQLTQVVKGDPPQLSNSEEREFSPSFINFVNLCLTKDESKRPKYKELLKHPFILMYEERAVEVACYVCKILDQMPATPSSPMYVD

[22] = molecular target: kinases (KINOMEscan panel) (Homo sapiens, UniProt O75582); conditions: NEW KINOMEscan
Chain of kinases (KINOMEscan panel) (Homo sapiens, UniProt O75582) (O75582 whole entry): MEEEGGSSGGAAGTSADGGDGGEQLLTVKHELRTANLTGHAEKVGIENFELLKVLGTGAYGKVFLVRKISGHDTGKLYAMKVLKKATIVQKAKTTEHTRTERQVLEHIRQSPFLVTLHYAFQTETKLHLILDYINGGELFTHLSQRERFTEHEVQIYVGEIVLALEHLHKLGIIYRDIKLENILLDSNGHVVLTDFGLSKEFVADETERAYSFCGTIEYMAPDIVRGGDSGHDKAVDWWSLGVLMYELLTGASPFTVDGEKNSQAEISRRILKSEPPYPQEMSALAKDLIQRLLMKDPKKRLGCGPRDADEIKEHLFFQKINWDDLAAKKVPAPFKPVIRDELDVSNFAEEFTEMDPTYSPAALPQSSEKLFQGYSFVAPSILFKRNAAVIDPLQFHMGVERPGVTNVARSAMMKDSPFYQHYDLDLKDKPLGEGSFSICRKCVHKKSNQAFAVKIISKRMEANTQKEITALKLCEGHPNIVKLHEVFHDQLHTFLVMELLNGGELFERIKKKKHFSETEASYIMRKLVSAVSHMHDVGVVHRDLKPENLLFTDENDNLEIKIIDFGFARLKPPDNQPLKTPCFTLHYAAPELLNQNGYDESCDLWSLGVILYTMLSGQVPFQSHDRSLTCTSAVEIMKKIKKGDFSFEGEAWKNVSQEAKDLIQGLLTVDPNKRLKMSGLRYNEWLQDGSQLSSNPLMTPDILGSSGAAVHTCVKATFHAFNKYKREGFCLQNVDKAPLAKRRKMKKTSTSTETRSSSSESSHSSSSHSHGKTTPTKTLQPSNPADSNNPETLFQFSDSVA

[23] = molecular target: kinases (KINOMEscan panel) (Homo sapiens, UniProt O60285)
[24] = molecular target: kinases (KINOMEscan panel) (Homo sapiens, UniProt P04629)
[25] = molecular target: kinases (KINOMEscan panel) (Homo sapiens, UniProt Q16659)
[26] = molecular target: kinases (KINOMEscan panel) (Homo sapiens, UniProt Q15208)
Chain of kinases (KINOMEscan panel) (Homo sapiens, UniProt Q15208) (Q15208 whole entry): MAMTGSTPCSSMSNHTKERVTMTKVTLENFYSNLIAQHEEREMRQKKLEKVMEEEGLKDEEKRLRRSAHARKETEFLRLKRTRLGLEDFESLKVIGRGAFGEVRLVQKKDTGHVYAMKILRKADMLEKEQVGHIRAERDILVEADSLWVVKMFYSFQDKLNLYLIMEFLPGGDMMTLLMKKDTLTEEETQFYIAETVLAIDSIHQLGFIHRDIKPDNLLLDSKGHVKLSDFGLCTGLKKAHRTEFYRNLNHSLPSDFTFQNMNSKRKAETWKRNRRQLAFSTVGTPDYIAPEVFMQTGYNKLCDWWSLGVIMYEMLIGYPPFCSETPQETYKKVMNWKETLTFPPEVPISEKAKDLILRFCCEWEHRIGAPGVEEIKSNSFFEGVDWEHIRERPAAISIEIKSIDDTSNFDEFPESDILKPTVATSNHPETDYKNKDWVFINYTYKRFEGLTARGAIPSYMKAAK

[27] = molecular target: kinases (KINOMEscan panel) (Homo sapiens, UniProt P28482)
Chain of kinases (KINOMEscan panel) (Homo sapiens, UniProt P28482) (P28482 whole entry): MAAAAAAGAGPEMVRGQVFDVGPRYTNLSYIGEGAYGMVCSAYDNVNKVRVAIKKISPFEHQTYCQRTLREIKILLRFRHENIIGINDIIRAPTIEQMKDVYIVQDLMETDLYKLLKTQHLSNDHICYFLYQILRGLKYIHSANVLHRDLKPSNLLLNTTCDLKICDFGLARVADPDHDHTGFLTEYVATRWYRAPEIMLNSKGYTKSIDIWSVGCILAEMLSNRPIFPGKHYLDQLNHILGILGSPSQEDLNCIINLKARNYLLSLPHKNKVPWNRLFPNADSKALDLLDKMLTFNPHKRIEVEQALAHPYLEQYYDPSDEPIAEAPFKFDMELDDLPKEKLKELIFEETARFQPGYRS

[28] = molecular target: kinases (KINOMEscan panel) (Homo sapiens, UniProt P31152)
[29] = molecular target: kinases (KINOMEscan panel) (Homo sapiens, UniProt Q86UX6)
[30] = molecular target: kinases (KINOMEscan panel) (Homo sapiens, UniProt Q9Y6E0)
[31] = molecular target: kinases (KINOMEscan panel) (Homo sapiens, UniProt Q13043)
[32] = molecular target: kinases (KINOMEscan panel) (Homo sapiens, UniProt P07947)
[33] = molecular target: kinases (KINOMEscan panel) (Homo sapiens, UniProt Q15418)
Chain of kinases (KINOMEscan panel) (Homo sapiens, UniProt Q15418) (Q15418 whole entry): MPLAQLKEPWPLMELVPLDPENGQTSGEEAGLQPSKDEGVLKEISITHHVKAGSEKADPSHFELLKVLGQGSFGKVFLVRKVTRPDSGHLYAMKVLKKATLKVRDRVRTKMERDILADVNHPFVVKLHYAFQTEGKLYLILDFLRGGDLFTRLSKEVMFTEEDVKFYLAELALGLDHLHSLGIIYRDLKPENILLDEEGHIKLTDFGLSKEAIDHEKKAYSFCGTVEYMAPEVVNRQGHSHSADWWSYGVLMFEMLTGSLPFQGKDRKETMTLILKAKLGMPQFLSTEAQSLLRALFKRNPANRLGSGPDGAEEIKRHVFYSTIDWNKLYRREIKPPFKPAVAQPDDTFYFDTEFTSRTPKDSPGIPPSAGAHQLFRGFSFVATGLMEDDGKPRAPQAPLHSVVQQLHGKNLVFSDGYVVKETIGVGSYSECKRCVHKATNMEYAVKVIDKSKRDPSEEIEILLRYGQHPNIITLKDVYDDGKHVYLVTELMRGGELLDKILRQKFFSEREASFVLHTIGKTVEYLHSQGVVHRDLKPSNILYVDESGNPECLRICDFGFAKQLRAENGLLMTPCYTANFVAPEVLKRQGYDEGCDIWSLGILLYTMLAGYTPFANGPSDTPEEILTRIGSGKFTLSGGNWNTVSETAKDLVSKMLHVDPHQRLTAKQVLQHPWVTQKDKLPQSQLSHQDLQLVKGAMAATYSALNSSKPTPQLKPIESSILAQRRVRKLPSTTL

[34] = molecular target: kinases (KINOMEscan panel) (Homo sapiens, UniProt Q9H093)
[35] = molecular target: kinases (KINOMEscan panel) (Homo sapiens, UniProt P35968)
[36] = molecular target: kinases (KINOMEscan panel) (Homo sapiens, UniProt Q8WU08)
[37] = molecular target: kinases (KINOMEscan panel) (Homo sapiens, UniProt Q92918)
[38] = molecular target: kinases (KINOMEscan panel) (Homo sapiens, UniProt Q15349)
Chain of kinases (KINOMEscan panel) (Homo sapiens, UniProt Q15349) (Q15349 whole entry): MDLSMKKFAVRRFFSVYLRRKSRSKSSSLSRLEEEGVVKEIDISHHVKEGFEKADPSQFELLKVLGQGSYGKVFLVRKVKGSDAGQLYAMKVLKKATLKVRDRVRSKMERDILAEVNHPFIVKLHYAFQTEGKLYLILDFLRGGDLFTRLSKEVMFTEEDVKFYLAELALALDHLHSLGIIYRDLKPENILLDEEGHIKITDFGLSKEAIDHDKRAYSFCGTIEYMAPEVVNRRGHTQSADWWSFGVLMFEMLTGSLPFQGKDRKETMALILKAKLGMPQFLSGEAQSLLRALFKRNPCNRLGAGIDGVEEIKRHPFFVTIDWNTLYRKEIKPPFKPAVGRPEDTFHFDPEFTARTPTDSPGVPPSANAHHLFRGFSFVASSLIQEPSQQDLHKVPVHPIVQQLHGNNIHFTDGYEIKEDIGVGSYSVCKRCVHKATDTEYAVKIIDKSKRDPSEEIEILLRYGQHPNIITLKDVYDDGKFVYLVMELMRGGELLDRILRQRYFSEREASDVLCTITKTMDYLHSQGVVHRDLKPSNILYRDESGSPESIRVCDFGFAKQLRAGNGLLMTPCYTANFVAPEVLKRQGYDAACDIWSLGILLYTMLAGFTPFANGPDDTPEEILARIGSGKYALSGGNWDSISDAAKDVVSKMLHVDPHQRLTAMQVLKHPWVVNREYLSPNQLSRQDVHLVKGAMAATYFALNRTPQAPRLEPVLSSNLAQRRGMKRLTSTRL

[39] = molecular target: kinases (KINOMEscan panel) (Homo sapiens, UniProt Q14289)
[40] = molecular target: kinases (KINOMEscan panel) (Homo sapiens, UniProt P46734)

Cc1cccc(-c2nc(N(C)c3ccc4ncsc4c3)c3ccccc3n2)n1 [NK-161]
KINOMEscan PTK6/BRK [1]: 0
KINOMEscan MAPK7/ERK5 [2]: 0
KINOMEscan TEK/TIE2 [3]: 13
KINOMEscan FYN/SLK [4]: 4
KINOMEscan MAP3K20/ZAK [5]: 0
KINOMEscan NTRK2/TRKB [6]: 45
KINOMEscan PIK3C3/VPS34 [7]: 0
KINOMEscan PNCK/CAMK1B [8]: 0
KINOMEscan MAP3K5/ASK1 [9]: 0
KINOMEscan STK32B/YANK2 [10]: 17
KINOMEscan STK17B/DRAK2 [11]: 4
KINOMEscan STK17A/DRAK1 [12]: 0
KINOMEscan RPS6KA3/RSK2(Kin.Dom.1-N-terminal) [13]: 5
KINOMEscan RPS6KA3/RSK2(Kin.Dom.2-C-terminal) [13]: 27
KINOMEscan MAP2K1/MEK1 [14]: 32
KINOMEscan RPS6KA6/RSK4(Kin.Dom.1-N-terminal) [15]: 8
KINOMEscan RPS6KA6/RSK4(Kin.Dom.2-C-terminal) [15]: 4
KINOMEscan SLTM/MET [16]: 11
KINOMEscan MAP2K7/MKK7 [17]: 0
KINOMEscan MAP2K2/MEK2 [18]: 27
KINOMEscan MAP3K6/ASK2 [19]: 0
KINOMEscan STK38L/NDR2 [20]: 0
KINOMEscan MAP2K4/MEK4 [21]: 0
KINOMEscan RPS6KA5(Kin.Dom.1-N-terminal) [22]: 21
KINOMEscan RPS6KA5(Kin.Dom.2-C-terminal) ([22]; kinase RPS6KA5(Kin.Dom.2-C-terminal)): 0
KINOMEscan NUAK1/ARK5 [23]: 0
KINOMEscan NTRK1/TRKA [24]: 22
KINOMEscan MAPK6/ERK3 [25]: 14
KINOMEscan NDR1/STK38 [26]: 42
KINOMEscan MAPK1/ERK2 [27]: 6
KINOMEscan MAPK4/ERK4 [28]: 6
KINOMEscan STK32C/YANK3 [29]: 18
KINOMEscan STK24/MST3 [30]: 0
KINOMEscan STK4/MST1 [31]: 17
KINOMEscan YES1/YES [32]: 0
KINOMEscan RPS6KA1/RSK1(Kin.Dom.1-N-terminal) [33]: 9
KINOMEscan RPS6KA1/RSK1(Kin.Dom.2-C-terminal) [33]: 34
KINOMEscan NUAK2/SNARK [34]: 15
KINOMEscan KDR/VEGFR2 [35]: 4
KINOMEscan STK32A/YANK1 [36]: 0
KINOMEscan MAP4K1/HPK1 [37]: 0
KINOMEscan RPS6KA2/RSK3(Kin.Dom.1-N-terminal) [38]: 0
KINOMEscan RPS6KA2/RSK3(Kin.Dom.2-C-terminal) [38]: 16
KINOMEscan PTK2B/PYK2 [39]: 9
KINOMEscan MAP2K3/MEK3 [40]: 0
